Results as given in PubChem BioAssay AID1159565 (GlaxoSmithKline (GSK), 2015).
The source made the active and inactive calls. No rule for the calls is given here.

Tested on: T. cruzi-infected H9C2 cardiomyocytes, high-content imaging
Experiment: anti-T. cruzi activity in infected cardiomyocytes – imaging, H9C2 host cardiomyocytes, host toxicity (AID 1159565);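 also: infected cells incubated 72 h after plating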
[1] = measured here: H9C2 host cell toxicity
[2] = measured here: amastigotes per cell

Structure (SMILES) | IC50 | IC50 [1] | IC50 [2]
Cn1nc([N+](=O)[O-])nc1Oc1ccc(C(=O)c2ccccc2)cc1 | 0.32 µM | > 50 µM | 0.13 µM
COc1ccc(-c2ccc3nnc(-c4ccc(O)c(OC)c4)n3c2)cn1 | 3.2 µM | > 50 µM | 2 µM
O=C(CN1CCN(S(=O)(=O)c2cccc([N+](=O)[O-])c2)CC1)Nc1ccc(Oc2ccccc2)cc1 | 2.5 µM | > 50 µM | 1.3 µM
Cc1ccc(C)c(-n2nnnc2Sc2nc([N+](=O)[O-])nn2C)c1 | 0.79 µM | > 50 µM | 0.25 µM
Cc1ccc(NC(=O)c2ccnc(N3CCCC3)c2)cc1-c1ccsc1C(N)=O | 13 µM | > 50 µM | 7.9 µM
COc1ccc(Nc2nc(-c3ccccn3)cs2)c(OC)c1 | 7.9 µM | 2 µM | 5 µM
NC(N)=Nc1nc(-c2ccc(NC(N)=NCCN3CCCC3)cc2)cs1 | > 50 µM (inactive) | > 50 µM | > 50 µM
O=C(O)[C@H]1C[C@@H]1c1ccc(-c2ccc(CN(CCc3ccccn3)C(=O)C3CCC3)cc2)cc1 | 32 µM | > 50 µM | 32 µM
Cn1nccc1-c1cc(OC(CN)c2ccccc2)cnc1-c1ccco1 (stereo not drawn) | 0.1 µM | > 50 µM | 0.1 µM
Cc1ccc(Nc2nc(-c3ccccn3)cc(N3CCCC(O)C3)n2)cc1 (stereo not drawn) | 6.3 µM | 0.5 µM | 2.5 µM
Nc1nccc(-c2csc(Nc3ccc(Cl)cc3)n2)n1 | > 50 µM (inactive) | 2 µM | > 50 µM
C=CCN(Cc1cccs1)C(=O)CSc1nnc(-c2ccc3c(c2)OCO3)o1 | 0.63 µM | > 50 µM | 0.5 µM
Cc1nn(-c2nc3ccccc3s2)c2c1C(c1ccc(OCC(N)=O)cc1)SCC(=O)N2 (stereo not drawn) | > 50 µM (inactive) | > 50 µM | > 50 µM
Cc1[nH]nc(-c2nc3ccccc3[nH]2)c1C(=O)NC1CCCNC1 (stereo not drawn) | 0.063 µM | 3.2 µM | 0.04 µM
Cc1ccc(S(C)(=O)=O)cc1Nc1nccc(-c2sc(N)nc2-c2ccccc2)n1 | 0.13 µM | 5 µM | 0.079 µM
COc1cccc(Nc2cc(C)nc(-c3ccccn3)n2)c1 | 13 µM | 5 µM | 7.9 µM
O=C(CC1(O)C(=O)N(Cc2cccs2)c2ccc(Br)cc21)c1cccnc1 (stereo not drawn) | 40 µM | 4 µM | 25 µM
O=c1oc2ccccc2n1C1CCN(Cc2ccccc2-c2cccnc2)CC1 | 0.32 µM | > 50 µM | 0.4 µM
O=C(CSc1nnc(-c2ccc3c(c2)OCO3)o1)N(Cc1ccco1)CC(F)(F)F | 3.2 µM | > 50 µM | 2.5 µM
O=C(Nc1nc(-c2ccccn2)cs1)c1ccc(S(=O)(=O)N2CCCCC2)cc1 | 0.63 µM | 2.5 µM | 0.4 µM
CC(=O)Nc1ccc(Nc2nccc(-c3cnn4ncccc34)n2)cc1C(F)(F)F | 0.5 µM | 0.063 µM | 0.2 µM
O=C(NCc1nnc2n1CCCCC2)c1ccc(-c2ccc(F)cc2)o1 | 1.6 µM | > 50 µM | 1 µM
CNC(=O)Oc1ccc(C(=O)NCc2ccccc2)cc1OC(=O)NC | 40 µM | > 50 µM | 40 µM
COc1ncc(-c2ccc3nccc(-c4ccncc4)c3c2)cc1NS(=O)(=O)C1CC1 | 2.5 µM | 0.79 µM | 2 µM

Structure (SMILES) | IC50 | IC50 [1] | IC50 [2]
CN(C)S(=O)(=O)c1cccc(CSc2nnc(-c3ccc4c(c3)OCO4)o2)c1 | 0.1 µM | > 50 µM | 0.05 µM
CCOc1ccc(CC(=O)N2c3ccccc3CC2C(=O)NC)cc1 (stereo not drawn) | > 50 µM (inactive) | > 50 µM | > 50 µM
CN(C)c1ccc(N)cc1CN(CC1CCCO1)S(C)(=O)=O (stereo not drawn) | > 50 µM (inactive) | > 50 µM | > 50 µM
O=[N+]([O-])c1ccc(-c2nnn(-c3ccc(Cl)cc3)n2)o1 | 0.79 µM | 10 µM | 0.079 µM
Cc1nn(-c2nc(N)nc(-c3ccccn3)n2)c(N)c1-c1ccccc1 | 5 µM | 13 µM | 1.3 µM
CCCCCNC(=O)c1c[nH]c2ccc(S(=O)(=O)N(C)c3ccc(OCC)cc3)cc2c1=O | > 50 µM (inactive) | > 50 µM | > 50 µM
O=C(Cn1cnc2c(-c3ccccc3)csc2c1=O)N1CCCCC1 | 4 µM | > 50 µM | 3.2 µM
COc1ccc(NS(=O)(=O)c2cc(NC(=O)Cc3ccc(C)cc3)ccc2N2CCOCC2)cc1 | 5 µM | > 50 µM | 2.5 µM
Cc1cc(Nc2ccc(C#N)c(Cl)c2C)n[nH]1 | > 50 µM (inactive) | > 50 µM | 20 µM
Cc1c(C(C)NC(=O)Nc2cccc(Cl)c2)sc2ncnn12 (stereo not drawn) | 0.2 µM | > 50 µM | 0.16 µM
O=C(NCC1CCCCN1C(=O)c1cccc2ccccc12)c1ccccc1 (stereo not drawn) | 5 µM | > 50 µM | 3.2 µM
Cc1nc2c(-c3ncn[nH]3)cc(NC(=O)Cc3ccccc3)cn2c1C | 1 µM | 6.3 µM | 0.79 µM
O=C(c1cccc(Nc2ncc(-c3ccc4c(c3)OCO4)cn2)c1)N1CCSC1 | 0.25 µM | 1 µM | 0.2 µM
COc1ccc(OC)c(S(=O)(=O)N(Cc2c(F)cccc2F)[C@@H]2CCN(C#N)C2)c1 | 13 µM | 16 µM | 6.3 µM
O=C(Nc1nc2cc(Cl)ccc2o1)c1cccc(Cl)c1 | 0.79 µM | 2.5 µM | 0.63 µM
Cc1ccccc1OCC(=O)N1CCCN(c2cccnn2)CC1 | 0.63 µM | > 50 µM | 0.5 µM
CCC(CC)C(=O)Nc1cccc(C(=O)Nc2nnc(C3CCCCC3)s2)c1 | 25 µM | > 50 µM | 16 µM
Cc1cc(NC(=O)CC2CCCCC2)n(-c2nc3c(c(=O)[nH]2)CCC3)n1 | 0.32 µM | 4 µM | 0.13 µM
CCCc1cc(N)nc(-c2cc(CCC)cc(N)n2)c1 | 0.63 µM | 0.2 µM | 0.5 µM
O=C(CN(Cc1ccccn1)Cc1ccccn1)NC1Cc2ccccc2C1 | 13 µM | > 79 µM | 6.3 µM
Cc1c(C(=O)NCCCCn2ccnc2)oc2c(C)cccc12 | 0.5 µM | > 50 µM | 0.5 µM
Nc1nc(-c2ccccn2)nc(N)c1Cc1c(F)cccc1Cl | 2 µM | 1.3 µM | 1.6 µM
Cc1ccc2onc(Nc3ccnc(Nc4cccc(S(C)(=O)=O)c4)n3)c2c1 | 0.63 µM | 5 µM | 0.4 µM
Cc1cc(Nc2cc(C3CC3)[nH]n2)nc(N2CCC[C@H]2C(N)=O)n1 | 0.063 µM | 0.13 µM | 0.02 µM

Structure (SMILES) | IC50 | IC50 [1] | IC50 [2]
CCn1nccc1CN(C)C(=O)C=Cc1ccc(Cl)cc1 | 0.32 µM | > 50 µM | 0.32 µM
Cc1ccc2c(c1)-c1onc(C(=O)N3CCCCC3c3cccnc3)c1CO2 (stereo not drawn) | 0.13 µM | > 50 µM | 0.13 µM
NS(=O)(=O)c1ccc(Nc2ncc3cccc(OC4CCNCC4)c3n2)cc1 | 0.05 µM | 0.63 µM | 0.02 µM
CN(Cc1cc2ccccc2s1)c1ncc2c(N)nc(N)nc2n1 | 3.2 µM | 20 µM | 0.79 µM
CC(CNS(=O)(=O)c1ccc(OC(F)F)cc1)c1ccc(NC(=O)c2ccncc2)cc1 (stereo not drawn) | 0.1 µM | > 50 µM | 0.079 µM
CCN(CC)c1ncc(C(=O)c2ccc([N+](=O)[O-])o2)s1 | 13 µM | 5 µM | 7.9 µM
CNc1nc(C)nc(N2CCc3cc(C(=O)NCc4ccc(-c5nccn5C)cc4Cl)ccc32)n1 | 13 µM | 50 µM | 5 µM
COc1ccc2ncc(F)c(CCN3CC[C@@H](NC(=O)c4cc5c(s4)CCC5)[C@@H](O)C3)c2n1 | 0.13 µM | 0.13 µM | 0.05 µM
O=C(c1ccc(OCCCc2cnc[nH]2)cc1)C1CC1 | 1.6 µM | > 50 µM | 1.3 µM
COc1ccc(C2CC(c3ccccc3Cl)=NN2C(=O)CNC(=O)C2CCCC2)cc1 (stereo not drawn) | 3.2 µM | > 50 µM | 2 µM
CN(C)Cc1ccc(N2CCC(NS(=O)(=O)c3ccc(Cl)cc3)CC2)cc1 | 0.32 µM | 13 µM | 0.25 µM
CN(C)Cc1cccc(Nc2nccc(-c3ccc(NCCN)c(C#N)c3)n2)c1 | 10 µM | 2 µM | 1.6 µM
Cc1cc(C)n(-c2nc(NC(C)C)nc(NC(C)(C)C)n2)n1 | 1.6 µM | 0.2 µM | 0.5 µM
O=C(CN(c1cccc(C(F)(F)F)c1)S(=O)(=O)c1ccc(Cl)cc1)NCc1ccc(F)c(F)c1 | 0.79 µM | > 50 µM | 0.5 µM
CC(=Cc1ccccc1)CN1CCC(=O)N(Cc2cccnc2)CC1 | 0.5 µM | > 50 µM | 0.5 µM
COc1ccc(C2C3CCCCC3(O)CCN2CC(=O)Nc2ccc(Cl)cc2Cl)cc1 (stereo not drawn) | 1.3 µM | 20 µM | 0.79 µM
O=[N+]([O-])c1ccc(-c2nnn(-c3cccnc3)n2)o1 | > 50 µM (inactive) | 6.3 µM | 0.063 µM
CN(Cc1nc2ccc(C(=O)NCC3CCCCC3)cc2[nH]1)C1CCCc2cccnc21 (stereo not drawn) | 0.63 µM | 5 µM | 0.32 µM
O=C(C1CCCCC1)N1CCN(c2nnc(-c3ccccc3)c3ccccc23)CC1 | 0.63 µM | > 50 µM | 0.4 µM
CNc1c(C(N)=O)c(-c2ccc3scnc3c2)nn1CC(F)(F)F | 0.25 µM | > 50 µM | 0.16 µM
O=C1COC(c2ccccc2)(c2ccccc2)CN1C1CCN(Cc2ccc(-n3ccnc3)cc2)CC1 | 2 µM | 32 µM | 0.5 µM
N#Cc1nc(C=Cc2ccccc2)oc1NCc1cccnc1 | 0.4 µM | 16 µM | 0.4 µM
COc1cccc2sc(CN(C)C(=O)C3CNCCN3c3ccc(F)cc3)c(C)c12 (stereo not drawn) | 0.2 µM | 7.9 µM | 0.16 µM
